Like-named read-outs stand apart in the source and are kept apart here.
What was measured:
[1] = tested on: H460 or DMS53 cells expressing Bcl2 shRNA1; test: Rescue of Bcl2-silenced cells with exogenous WT or AAAA Bcl2; type: cell-based, human
[2] = cited from earlier work
Bcl2 (WT) = Bcl2 (WT) (Homo sapiens, UniProt P10415); test: Competitive fluorescence polarization assay with fluorescent Bak peptide; type: binding
D10A Bcl2 mutant = D10A Bcl2 mutant (Homo sapiens, UniProt P10415, D10A); test: Competitive fluorescence polarization assay; type: binding
N11A Bcl2 mutant = N11A Bcl2 mutant (Homo sapiens, UniProt P10415, N11A); test: Competitive fluorescence polarization assay; type: binding
R12A Bcl2 mutant = R12A Bcl2 mutant (Homo sapiens, UniProt P10415, R12A); test: Competitive fluorescence polarization assay; type: binding
E13A Bcl2 mutant = E13A Bcl2 mutant (Homo sapiens, UniProt P10415, E13A); test: Competitive fluorescence polarization assay; type: binding
M16A Bcl2 mutant = M16A Bcl2 mutant (Homo sapiens, UniProt P10415, M16A); test: Competitive fluorescence polarization assay; type: binding
K17A Bcl2 mutant = K17A Bcl2 mutant (Homo sapiens, UniProt P10415, K17A); test: Competitive fluorescence polarization assay; type: binding
H20A Bcl2 mutant = H20A Bcl2 mutant (Homo sapiens, UniProt P10415, H20A); test: Competitive fluorescence polarization assay; type: binding
D31A Bcl2 mutant = D31A Bcl2 mutant (Homo sapiens, UniProt P10415, D31A); test: Competitive fluorescence polarization assay; type: binding
[3] = target: D10A/N11A/R12A/E13A (AAAA) Bcl2 mutant (Homo sapiens, UniProt P10415, D10A/E13A/N11A/R12A); test: Competitive fluorescence polarization assay; type: binding
Bcl2 ΔBH1 = test: Fluorescence polarization assay; type: binding; conditions: deletion of BH1
Bcl2 ΔBH2 = test: Fluorescence polarization assay; type: binding; conditions: deletion of BH2
Bcl2 ΔBH3 = test: Fluorescence polarization assay; type: binding; conditions: deletion of BH3
Bcl2 ΔBH4 = Bcl2 ΔBH4 (Homo sapiens, UniProt P10415, DEL6-31); test: Fluorescence polarization assay; type: binding; conditions: BH4 domain deficient Bcl2
Bcl-XL = Bcl-XL (Homo sapiens, UniProt Q07817); test: Fluorescence polarization assay; type: binding
Chain of Bcl-XL (Q07817 whole entry, species assumed): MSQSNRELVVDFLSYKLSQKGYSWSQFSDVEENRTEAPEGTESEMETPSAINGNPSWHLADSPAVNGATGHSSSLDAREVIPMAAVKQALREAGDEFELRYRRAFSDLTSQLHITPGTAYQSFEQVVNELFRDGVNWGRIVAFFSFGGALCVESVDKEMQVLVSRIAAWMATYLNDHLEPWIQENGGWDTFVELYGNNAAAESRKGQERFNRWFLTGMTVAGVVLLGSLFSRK

Mcl-1 = Mcl-1 (Homo sapiens, UniProt Q07820); test: Fluorescence polarization assay; type: binding
Chain of Mcl-1 (Q07820 whole entry, species assumed): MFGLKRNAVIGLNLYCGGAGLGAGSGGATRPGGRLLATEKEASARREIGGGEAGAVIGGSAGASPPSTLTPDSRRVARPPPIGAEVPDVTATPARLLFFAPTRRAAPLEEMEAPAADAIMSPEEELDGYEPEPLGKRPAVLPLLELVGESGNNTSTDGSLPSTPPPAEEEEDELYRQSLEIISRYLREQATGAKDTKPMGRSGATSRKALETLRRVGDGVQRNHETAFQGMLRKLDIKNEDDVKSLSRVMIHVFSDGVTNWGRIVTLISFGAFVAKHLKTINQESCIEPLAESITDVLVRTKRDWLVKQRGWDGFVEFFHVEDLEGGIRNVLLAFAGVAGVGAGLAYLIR

Bfl-1/A1 = Bfl-1/A1 (Homo sapiens, UniProt Q16548); test: Fluorescence polarization assay; type: binding
Chain of Bfl-1/A1 (Q16548 whole entry): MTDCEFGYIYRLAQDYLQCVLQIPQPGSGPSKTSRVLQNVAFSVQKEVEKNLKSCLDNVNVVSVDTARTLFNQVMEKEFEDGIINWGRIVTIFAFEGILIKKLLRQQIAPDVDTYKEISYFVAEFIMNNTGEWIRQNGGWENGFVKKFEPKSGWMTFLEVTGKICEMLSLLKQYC

Plasmid pUC19 DNA = test: Electrophoretic mobility shift assay; type: binding
[4] = target: Purified recombinant Bcl2 protein (Homo sapiens, UniProt P10415); test: Cell-free Bcl2 conformational change, IP with anti-Bcl2/BH3 domain antibody; type: biochemical; conditions: cell-free system
purified recombinant Bax = test: Cell-free Bax activation, IP with 6A7 Bax antibody; type: biochemical; conditions: for direct Bax activation: Bax without Bcl2
[5] = tested on: NSCLC and SCLC cell lines; test: Cell growth; type: cell-based, human
[6] = tested on: normal small airway epithelial cell line (SAEC); test: Annexin-V/PI cell viability in normal cells; type: cell-based; conditions: 1μM, 72 hr
H1299 cells = test: Cell survival of H1299 cells overexpressing exogenous WT or mutant Bcl2; type: cell-based, human
[7] = tested on: H460, H157, DMS53, DMS153 and H146 cells expressing Bcl2 shRNA; test: Apoptosis; type: cell-based, human; conditions: 1μM, 72 hr; Bcl2 shRNA1, shRNA2 or shRNA3
MEF cells = test: Apoptotic effect on WT and Bax knockout MEF cells; type: cell-based
[8] = tested on: mitochondria isolated from H1299 cells; test: Cyt c release from isolated mitochondria; type: biochemical, human; conditions: 1μM, 30 min, 30°C
H460 cells [9] = test: Bcl2/IP3R interaction and Ca2+ release; type: cell-based, human; conditions: increasing concentrations, 24h
H460 cells [10] = test: Autophagy; type: cell-based, human
[11] = Maximum tolerated dose, 12-day daily i.p. treatment; type: in vivo
Single-dose MTD = type: in vivo
SCLC PDX = test: Patient-derived xenograft; type: in vivo, Nu/Nu nude mice; conditions: 20mg/kg/d i.p., 2 weeks
H460 cells [12] = test: SRB growth assay, single agents and combination; type: cell-based, human
[13] = tested on: H460 lung cancer xenografts; test: H460 lung cancer xenografts
A549 cells = test: Bcl2 expression by Western blot after mTOR inhibition; type: cell-based, human; conditions: increasing concentrations, 24 hr
H460 cells [14] = test: as above; type: cell-based, human; conditions: increasing concentrations, 24 hr
Bcl2 = Bcl2 expression by IHC in tumor tissues of NSCLC patients; type: in vivo, human; conditions: 5 or 10mg/day orally, 28 days, 10 NSCLC patients
[15] = exogenous AAAA Bcl2 mutant, 72 hr
[16] = 10, 20, 30mg/kg/d i.p., 14 days

## CC1(C)CCC(CN2CCN(c3ccc(C(=O)NS(=O)(=O)c4ccc(NCC5CCOCC5)c([N+](=O)[O-])c4)c(Oc4cnc5[nH]ccc5c4)c3)CC2)=C(c2ccc(Cl)cc2)C1 [ABT-199, reference compound]
[1]; [15]
  sensitivity of cells: restored the sensitivity
[1]; exogenous WT Bcl2, 72 hr
  sensitivity of cells: restored sensitivity
[2]; in vivo, ref Souers et al., 2013
  thrombocytopenia: did not cause thrombocytopenia

## CC1(C)CCC(c2ccc(Cl)cc2)=C(CN2CCN(c3ccc(C(=O)NS(=O)(=O)c4ccc(N[C@H](CCN5CCOCC5)CSc5ccccc5)c(S(=O)(=O)C(F)(F)F)c4)cc3)CC2)C1 [ABT-263]
[2]; ref Schoenwaelder et al., 2011
  thrombocytopenia: can induce thrombocytopenia

## CN(C)CC[C@H](CSc1ccccc1)Nc1ccc(S(=O)(=O)NC(=O)c2ccc(N3CCN(Cc4ccccc4-c4ccc(Cl)cc4)CC3)cc2)cc1[N+](=O)[O-] [ABT-737]
[2]; ref Schoenwaelder et al., 2011
  thrombocytopenia: can induce thrombocytopenia

## CCN(CC)C[C@@H](O)CNc1ccc(NC[C@H]2CO2)c2c1C(=O)c1ccccc1C2=O [BDA-366]
Bcl2 (WT)
  Ki: 3.3 ± 0.73 nM
D10A Bcl2 mutant
  Ki: 4.8 ± 0.41 nM
N11A Bcl2 mutant
  Ki: 4.1 ± 0.67 nM
R12A Bcl2 mutant
  Ki: 4.3 ± 0.54 nM
E13A Bcl2 mutant
  Ki: 4.5 ± 0.71 nM
M16A Bcl2 mutant
  Ki: 3.9 ± 0.31 nM
K17A Bcl2 mutant
  Ki: 4.2 ± 0.45 nM
H20A Bcl2 mutant
  Ki: 3.8 ± 0.47 nM
D31A Bcl2 mutant
  Ki: 3.7 ± 0.91 nM
[3]
  Ki: 598.64 ± 0.12 nM
Bcl2 ΔBH1
  effect of domain deletion on binding: did not significantly affect
Bcl2 ΔBH2
  effect of domain deletion on binding: did not significantly affect
Bcl2 ΔBH3
  effect of domain deletion on binding: did not significantly affect
Bcl2 ΔBH4
  binding: failed to bind
Bcl-XL
  binding: did not bind
Mcl-1
  binding: did not bind
Bfl-1/A1
  binding: did not bind
Plasmid pUC19 DNA
  DNA binding (mobility shift): but not BDA-366 can bind to pUC19 DNA
[4]
  Bcl2 conformational change (BH3 domain exposure): enhanced the ability of the Bcl2/BH3 domain-specific antibody to bind Bcl2
Purified recombinant Bax
  direct Bax activation: is not a direct Bax activator
Purified recombinant Bax; Bcl2 pre-treated with compound 1 hr, then Bax 2 hr
  Bcl2-dependent Bax activation: enhanced the ability of Bax to bind to 6A7 antibody
[5]; higher Bcl2: H157, Calu-1, H358, H460, H1975, DMS53, DMS153, H146, H69
  sensitivity of cell lines: more sensitive
[5]; lower or undetectable Bcl2: A549, H1299, DMS114, H128
  sensitivity of cell lines: less sensitive
[6]
  sensitivity of normal cells: less sensitive
H1299 cells; compound Bcl2 AAAA mutant
  cell survival: significantly prolonged cell survival
H1299 cells; exogenous WT or single site Bcl2 mutants
  sensitivity of cells: enhanced sensitivity
[7]
  sensitivity after depletion of endogenous Bcl2: significantly reduced sensitivity
[1]; [15]
  sensitivity of cells: not to BDA-366
[1]; exogenous WT Bcl2, 72 hr
  sensitivity of cells: restored sensitivity
MEF cells
  sensitivity of Bax deficient vs WT MEF cells: significantly resistant
[8]; WT Bcl2 mitochondria
  Cyt c release: induced Cyt c release
[8]; ΔBH3 and vector-only control mitochondria
  Cyt c release: not from ΔBH3 and vector-only control cells
H460 cells [9]
  Bcl2/IP3R binding: reduced Bcl2/IP3R binding
  Ca2+ release: increased Ca^2+ release
H460 cells [10]; 1 μM, 24h
  LC3-II levels: Increased levels of LC3-II
H460 cells [10]; vs DMSO control
  percentage of GFP-LC3vac cells: significantly increases
[11]; 40mg/kg/d i.p.
  time to death (uniformly lethal): ≤ 8 days
[11]; 50mg/kg/d i.p.
  time to death (uniformly lethal): up to 12 days
[11]; 10 to 30mg/kg/d i.p., up to 12 days
  lethality: no death
Single-dose MTD; 10% of single dose MTD
  maximum therapeutic dose for continuous treatment: 30~40 mg/kg
Single-dose MTD; mouse, in vivo
  single dose MTD: 300 to 400 mg/kg
Single-dose MTD; single dose 300mg/kg i.p.
  toxicity: did not cause weight loss or other toxicities
Single-dose MTD; single dose 400mg/kg
  ALT and AST: significantly enhanced
  pathological analysis of organs: microsteatosis in the liver and atrophic white pulp in the spleen
  time to death: 4 days
SCLC PDX
  tumor growth: potently suppressed the growth
H460 cells [12]; 100nM
  cell growth inhibition: partially inhibited
[13]; 30mg/kg
  body weight: Slight weight loss
[13]; [16]
  apoptosis in tumor tissues (active caspase 3, TUNEL): dose-dependent apoptosis induction
  tumor growth: dose-dependent repression
[13]; 10–30mg/kg/d
  histopathology of normal tissues: no evidence of normal tissue toxicities
[13]; 14 days
  Bcl2 BH3 domain exposure in tumor tissues (QD-IHF): dose-dependent exposure of the Bcl2 BH3 domain
  active Bax (6A7) in tumor tissues (QD-IHF): increased level of 6A7 binding to Bax
[13]; up to 30mg/kg/d, 14 days
  kidney (BUN) and liver (ALT and AST) function: in the normal range
  neutrophils, lymphocytes, RBC and platelets in blood: no decreases

## CO[C@H]1C[C@@H]2CC[C@@H](C)[C@@](O)(O2)C(=O)C(=O)N2CCCC[C@H]2C(=O)O[C@H]([C@H](C)C[C@@H]2CC[C@@H](OCCO)[C@H](OC)C2)CC(=O)[C@H](C)/C=C(\C)[C@@H](O)[C@@H](OC)C(=O)[C@H](C)C[C@H](C)/C=C/C=C/C=C/1C [RAD001, everolimus]
H460 cells [12]; 1nM
  cell growth inhibition: partially inhibited
A549 cells
  Bcl2 expression: up-regulation of Bcl2 in a dose-dependent manner
H460 cells [14]
  Bcl2 expression: up-regulation of Bcl2 in a dose-dependent manner
Bcl2
  Bcl2 expression in post-treatment vs baseline tumor tissues: increased expression of Bcl2
[13]; 1mg/kg/d, 14 days, alone
  apoptosis in tumor tissues: did not cause significant apoptosis

## COc1cc([C@@H]2c3cc4c(cc3[C@@H](O[C@@H]3O[C@@H]5CO[C@@H](C)O[C@H]5[C@H](O)[C@H]3O)[C@H]3COC(=O)[C@H]23)OCO4)cc(OC)c1O [VP-16]
[4]
  Bcl2 conformational change (BH3 domain exposure): not a chemotherapeutic agent (i.e. VP-16 or cisplatin) can directly induce Bcl2 conformational change

## N.N.[Cl][Pt][Cl] [cisplatin, reference compound]
Plasmid pUC19 DNA
  DNA binding (mobility shift): can bind to pUC19 DNA
[4]
  Bcl2 conformational change (BH3 domain exposure): not a chemotherapeutic agent (i.e. VP-16 or cisplatin) can directly induce Bcl2 conformational change

## BAM7 [reference compound]
Purified recombinant Bax
  direct Bax activation: can directly activate Bax

Reference: article PMC4470473 (Cancer cell, 2015)
